Reference: patent US11633502B2, “Bone marrow-, reticuloendothelial system-, and/or lymph node-targeted radiolabeled liposomes and methods of their diagnostic and therapeutic use” (Memorial Sloan Kettering Cancer Center, priority 2016, dated 2023)

Assay: Blood cell counts of GT3 liposome treated mice after ionizing radiation
Assay type: in vivo, C57/B6 mice
Settings: after exposure to 2 or 4 Gy
Protocol: FIGS. 28A and 28B show blood cell counts of GT3 liposome treated mice after ionization radiation. White blood cell (WBC) (FIG. 28A) and lymph (FIG. 28B) counts are shown for mice treated with 2 Gy+GT3 containing liposomes, 2 Gy, 4 Gy+GT3 containing liposomes, and 4 Gy.
C57/B6 mice were treated with GT3 containing BMT liposomes with 10 mg/kg GT3 at 24 h prior to 2 and 4 Gy. Blood cells were counted at 0, 1, 4, 6, 13 days after irradiation. […] Lymphocyte recovery is the most significant. […] This effect was not seen when GT3 was not targeted to the bone marrow.

With `CC(C)=CCC/C(C)=C/CC/C(C)=C/CC[C@]1(C)CCc2cc(O)c(C)c(C)c2O1` [GT3] as the compound, how does the “recovery of lymphocyte and neutrophils” value read?
The value was “not seen”.
